Residues, ends and D or L forms follow the SMILES beside them. *: point of attachment. Cbz = O=C(OCc1ccccc1)*
Key:
Assay in all cases: Kinetic parameters on synthetic peptide substrates (HPLC of hydrolysis products)
Type in all cases: biochemical
[1] = target: T1, B.subtilis neutral protease mutant 147 (Gly 147 → Ala) (Bacillus subtilis, UniProt P68736, G369A); settings: 147 mutant; 37° C., 25 mM Tris-HCl, pH 7.0, 2.5 mM calcium acetate
T1 construct: made in house; host or cells: B. subtilis SMS 108 carrying pSM 374 (B. subtilis SMS 263)
Method: (§1) The kinetic parameters Km and Kcat of wild-type neutral protease and of the three mutants were determined on Z-Phe-Leu-Ala, Z-Ala-Leu-Ala, Z-Gly-Leu-Ala and Z-Val-Leu-Ala synthetic peptide substrates (Bachem, Bubendorf, CH).
(§2) The hydrolysis reactions were carried out at 37° C. in 0.6 ml of a solution containing 25 mM Tris-HCl, pH 7.0, and 2.5 mM calcium acetate, with the use of different concentrations of the substrate (from 0.2 to 20.0 mM) and of the enzyme (from 0.04 to 5 ug/ml).
(§3) 100 μl portions were withdrawn from the reaction mixtures at various time intervals, and 100 μl of a solution of H2 O:CH3 CN:H3 PO4 in a volumetric ratio of 64:34:1 were added and the mixture centrifuged at 14,000 rpm for 5 minutes.
(§4) 20 μl of the supernatant liquid thus obtained were then loaded into a VYDAC® 218 TP S415 HPLC column (4.6×150 mm, 10 μm particles) and the hydrolysis products (Z-Phe, Z-Ala, Z-Val and Z-Gly) were separated by isocratic elution at a flow rate of 1.5 ml/minute with the use of solutions A (0.05% H3 PO4, v/v) and B (H2 O:CH3 CN:H3 PO4, 4.95:95.0:0.05 v/v) in ratios which varied according to the substrate used.
(§5) The reaction products were measured as their absorbance at 220 nm and quantised by the integration of the elution peaks with the use of the System Gold program (Beckman).
(§6) Initial velocities (vi) and maximum velocities (Vmax) Km and Kcat were then found for each of the substrates with the use of the Michaelis-Manten equation [formula]

[2] = target: T2, B.subtilis neutral protease mutant 189 (Gly 189 → Ala) (Bacillus subtilis, UniProt P68736, G406A); settings: 189 mutant; 37° C., 25 mM Tris-HCl, pH 7.0, 2.5 mM calcium acetate
T2 construct: made in house; host or cells: B. subtilis SMS 108 carrying pSM 375 (printed pSM 75; B. subtilis SMS 261)
Method: as §1, §2, §3, §4, §5, §6

[3] = target: T3, B.subtilis neutral protease double mutant 147/189 (Gly 147 → Ala, Gly 189 → Ala) (Bacillus subtilis, UniProt P68736, G369A/G406A); settings: 147/189 mutant; 37° C., 25 mM Tris-HCl, pH 7.0, 2.5 mM calcium acetate
T3 construct: made in house; host or cells: B. subtilis SMS 108 carrying pSM 376 (B. subtilis SMS 262)
Method: as §1, §2, §3, §4, §5, §6

[4] = target: T4, B.subtilis neutral protease, wild type (PN w.t.) (Bacillus subtilis, UniProt P68736); design: unit not given beside the values; settings: 37° C., 25 mM Tris-HCl, pH 7.0, 2.5 mM calcium acetate
T4 construct: made in house; host or cells: B. subtilis SMS 108 carrying pSM 127 (NRRL B-15900)
T4 sequence (P68736 222-521): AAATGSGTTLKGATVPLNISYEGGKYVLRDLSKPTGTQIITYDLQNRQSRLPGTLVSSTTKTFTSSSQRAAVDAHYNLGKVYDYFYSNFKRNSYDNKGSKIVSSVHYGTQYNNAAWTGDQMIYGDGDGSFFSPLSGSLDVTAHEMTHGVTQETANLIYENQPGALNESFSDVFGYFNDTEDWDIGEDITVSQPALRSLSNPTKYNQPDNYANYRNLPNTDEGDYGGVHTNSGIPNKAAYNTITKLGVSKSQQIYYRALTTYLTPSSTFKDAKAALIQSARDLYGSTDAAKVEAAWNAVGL
Method: as §1, §2, §3, §4, §5, §6

T3 sequence (P68736 222-521 G369A/G406A): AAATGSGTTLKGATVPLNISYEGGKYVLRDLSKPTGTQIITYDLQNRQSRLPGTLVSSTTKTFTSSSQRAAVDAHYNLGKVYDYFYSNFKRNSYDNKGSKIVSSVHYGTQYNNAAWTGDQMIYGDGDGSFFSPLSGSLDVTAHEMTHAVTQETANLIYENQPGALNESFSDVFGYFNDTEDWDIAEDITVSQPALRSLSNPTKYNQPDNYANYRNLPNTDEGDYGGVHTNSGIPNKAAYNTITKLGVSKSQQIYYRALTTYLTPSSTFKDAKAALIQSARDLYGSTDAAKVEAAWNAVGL
T1 sequence (P68736 222-521 G369A): as the sequence (P68736 222-521 G369A/G406A) above, with A185G counted along it
T2 sequence (P68736 222-521 G406A): as the sequence (P68736 222-521 G369A/G406A) above, with A148G counted along it

CC(C)C[C@H](NC(=O)CNC(=O)OCc1ccccc1)C(=O)N[C@@H](C)C(=O)O [Z--Gly--Leu--Ala, Z-Gly-Leu-Ala] (Cbz-Gly-Leu-Ala-OH)
Kcat [1]: 105.8
Km [1]: 35.3 mM
Kcat [2]: 1847
Km [2]: 2.38 mM
Kcat [3]: 186.4
Km [3]: 4.39 mM
Kcat [4]: 1150

CC(C)C[C@H](NC(=O)[C@H](C)NC(=O)OCc1ccccc1)C(=O)N[C@@H](C)C(=O)O [Z--Ala--Leu--Ala, Z-Ala-Leu-Ala] (Cbz-Ala-Leu-Ala-OH)
Kcat [1]: ~3500
Kcat [2]: 2694
Km [2]: 1.53 mM
Kcat [3]: 1329
Km [3]: 8.72 mM
Kcat [4]: 3005

CC(C)C[C@H](NC(=O)[C@@H](NC(=O)OCc1ccccc1)C(C)C)C(=O)N[C@@H](C)C(=O)O [Z--Val--Leu--Ala, Z-Val-Leu-Ala] (Cbz-Val-Leu-Ala-OH)
Kcat [1]: 3.76
Km [1]: 24 mM
Kcat [2]: 13.12
Km [2]: 0.96 mM
Kcat [3]: 7.61
Km [3]: 6.97 mM
Kcat [4]: 6.12

CC(C)C[C@H](NC(=O)[C@H](Cc1ccccc1)NC(=O)OCc1ccccc1)C(=O)N[C@@H](C)C(=O)O [Z--Phe--Leu--Ala, Z-Phe-Leu-Ala] (Cbz-Phe-Leu-Ala-OH)
Kcat [1]: 1933
Km [1]: 9.36 mM
Kcat [2]: 2139
Km [2]: 2.53 mM
Kcat [3]: 1038
Km [3]: 0.95 mM
Kcat [4]: 1986
